The values below are quoted from earlier work in patent US10011626B2, “Method for the purification of decitabine” (Johnson Matthey Public Limited Company, priority 2012, dated 2018).

SMILES strings stand for the structures.

As to `Nc1ncn([C@H]2CC(O)[C@@H](CO)O2)c(=O)n1` (stereo partly drawn) [decitabine, 4-amino-1-(2-deoxy-β-D-erythropentofuranosyI)-1,3,5-triazin-2-(1H)-one], the “solubility in 1,1,1,3,3,3-hexafluoro-2-propanol” value (solvent: 1,1,1,3,3,3-hexafluoro-2-propanol, slightly soluble) was “about 18 mg/mL”. For the same compound, for the setting “solvent: methyl sulfoxide”, the “solubility in methyl sulfoxide” value was “approximately 37 mg/mL”. Where the note is “solvent: water, sparingly soluble”, the solubility in water result was “about 8 mg/mL”.
